Converted amounts (≈) assume the structure as drawn.
Assays:
[1] = test system: Enterococcus faecalis (EFAE 9217); experiment: MIC by agar dilution, EFAE 9217; type: cell-based; conditions: Minimum Inhibitory Concentration, strain EFAE 9217; for MIC: Enterococcus faecalis
Source text: (§1) The oxazolidinone antibacterial agents of this invention have useful activity against a variety of organisms. The in vitro activity of compounds of this invention can be assessed by standard testing procedures such as the determination of minimum inhibitory concentration (MIC) by agar dilution as described in “Approved Standard. Methods for Dilution Antimicrobial Susceptibility Tests for Bacteria That Grow Aerobically”, 3rd. ed., published 1993 by the National Committee for Clinical Laboratory Standards, Villanova, Pa., USA. The activity of compounds of this invention against Staphylococcus aureus, Staphylococcus epidermidis, Streptococcus pneumoniae, Streptococcus pyogens, Enterococcus faecalis, Moraxella catarrhalis and H. influenzae is shown in Table 1.

[2] = test system: Moraxella catarrhalis (MCAT 30607); experiment: MIC by agar dilution, MCAT 30607; type: cell-based; conditions: Minimum Inhibitory Concentration, strain MCAT 30607; for MIC: Moraxella catarrhalis
Source text: as §1

[3] = test system: H. influenzae (HINF 30063); experiment: MIC by agar dilution, HINF 30063; type: cell-based; conditions: Minimum Inhibitory Concentration, strain HINF 30063; for MIC: Haemophilus influenzae
Source text: as §1

[4] = test system: Streptococcus pneumoniae (SPNE 9912); experiment: MIC by agar dilution, SPNE 9912; type: cell-based; conditions: Minimum Inhibitory Concentration, strain SPNE 9912; for MIC: Streptococcus pneumoniae
Source text: as §1

[5] = test system: Staphylococcus aureus (SAUR 9213); experiment: MIC by agar dilution, SAUR 9213; type: cell-based; conditions: Minimum Inhibitory Concentration, strain SAUR 9213; for MIC: Staphylococcus aureus
Source text: as §1

[6] = test system: Streptococcus pyogens (SPYO 152); experiment: MIC by agar dilution, SPYO 152; type: cell-based; conditions: Minimum Inhibitory Concentration, strain SPYO 152; for MIC: Streptococcus
Source text: as §1

[7] = test system: Enterococcus faecalis (EFAE 12712); experiment: MIC by agar dilution, EFAE 12712; type: cell-based; conditions: Minimum Inhibitory Concentration, strain EFAE 12712; for MIC: Enterococcus faecalis
Source text: as §1

[8] = test system: Staphylococcus epidermidis (SEPI 30593); experiment: MIC by agar dilution, SEPI 30593; type: cell-based; conditions: Minimum Inhibitory Concentration, strain SEPI 30593; for MIC: Staphylococcus epidermidis
Source text: as §1

Molecule	MIC [1]	MIC [2]	MIC [3]	MIC [4]	MIC [5]	MIC [6]	MIC [7]	MIC [8]	melting point	EFAE 9217 MIC [1]	MCAT 30607 MIC [2]	HINF 30063 MIC [3]	SPNE 9912 MIC [4]	SAUR 9213 MIC [5]	SPYO 152 MIC [6]	EFAE 12712 MIC [7]	SEPI 30593 MIC [8]
CCC(=S)NC[C@H]1CN(c2ccc(N3CCN(C(=O)[C@H](O)Cc4ccccc4)CC3)c(F)c2)C(=O)O1 [EX 20, N-[((5S)-3-{3-fluoro-4-[4-((2R)-2-hydroxy-3-phenylpropanoyl)-1-piperazinyl]phenyl}-2-oxo-1,3-oxazolidin-5-yl)methyl]propanethioamide]	1 µg/mL (≈ 1.94 µM)	4 µg/mL (≈ 7.77 µM)	64 µg/mL (≈ 124 µM)	< 0.5 µg/mL	1 µg/mL (≈ 1.94 µM)	1 µg/mL (≈ 1.94 µM)	1 µg/mL (≈ 1.94 µM)	1 µg/mL (≈ 1.94 µM)	128 to 130 °C (dec.)	–	–	–	–	–	–	–	–
CCC(=S)NC[C@H]1CN(c2ccc(N3CCN(C#N)CC3)c(F)c2)C(=O)O1 [EX 5, N-({(5S)-3-[4-(4-cyano-1-piperazinyl)-3-fluorophenyl]-2-oxo-1,3-oxazolidin-5-yl}methyl)propanethioamide]	0.25 µg/mL (≈ 0.639 µM)	1 µg/mL (≈ 2.55 µM)	2 µg/mL (≈ 5.11 µM)	0.125 µg/mL (≈ 0.319 µM)	0.25 µg/mL (≈ 0.639 µM)	0.125 µg/mL (≈ 0.319 µM)	0.25 µg/mL (≈ 0.639 µM)	0.25 µg/mL (≈ 0.639 µM)	182 to 184 °C	–	–	–	–	–	–	–	–
CCC(=S)NC[C@H]1CN(c2ccc(N3CCN(C(=O)C(C)(CO)CO)CC3)c(F)c2)C(=O)O1 [EX 18, N-{[(5S)-3-(3-fluoro-4-{4-[3-hydroxy-2-(hydroxymethyl)-2-mnethylpropanoyl]-1-piperazinyl}phenyl)-2-oxo-1,3-oxazolidin-5-yl]methyl}propanethioamide]	–	–	–	–	–	–	–	–	–	2 µg/mL	4 µg/mL	32 µg/mL	0.5 µg/mL	4 µg/mL	1 µg/mL	2 µg/mL	1 µg/mL
CCC(=S)NC[C@H]1CN(c2ccc(N3CCN(C(=O)CS(C)(=O)=O)CC3)c(F)c2)C(=O)O1 [EX 3, N-{ [(5S)-3-(3-fluoro-4-{4-[2-(methylsulfonyl)acetyl]-1-5 piperazinyl}phenyl]-2-oxo-1,3-oxazolidin-5-yl]methyl}propanethioamide]	0.5 µg/mL (≈ 1.03 µM)	2 µg/mL (≈ 4.11 µM)	8 µg/mL (≈ 16.4 µM)	0.25 µg/mL (≈ 0.514 µM)	2 µg/mL (≈ 4.11 µM)	0.5 µg/mL (≈ 1.03 µM)	1 µg/mL (≈ 2.06 µM)	0.5 µg/mL (≈ 1.03 µM)	–	–	–	–	–	–	–	–	–
CCC(=S)NC[C@H]1CN(c2ccc(N3CCN(C(=O)CCO)CC3)c(F)c2)C(=O)O1 [EX 13]	1 µg/mL (≈ 2.28 µM)	2 µg/mL (≈ 4.56 µM)	8 µg/mL (≈ 18.2 µM)	0.5 µg/mL (≈ 1.14 µM)	2 µg/mL (≈ 4.56 µM)	0.5 µg/mL (≈ 1.14 µM)	1 µg/mL (≈ 2.28 µM)	1 µg/mL (≈ 2.28 µM)	–	–	–	–	–	–	–	–	–
CCC(=S)NC[C@H]1CN(c2ccc(N3CCN(C(=O)[C@H](O)CO)CC3)c(F)c2)C(=O)O1 [EX 17, N-({(5S)-3-[3-fluoro-4-[4-((2R)-2,3-dihydroxypropanoyl)-1-piperazinyl]phenyl]-2-oxo-1,3-oxazolidin-5-yl}methyl)propanethioamide]	0.5 µg/mL (≈ 1.1 µM)	2 µg/mL (≈ 4.4 µM)	8 µg/mL (≈ 17.6 µM)	0.25 µg/mL (≈ 0.55 µM)	4 µg/mL (≈ 8.8 µM)	0.5 µg/mL (≈ 1.1 µM)	1 µg/mL (≈ 2.2 µM)	0.5 µg/mL (≈ 1.1 µM)	132 °C (dec.)	–	–	–	–	–	–	–	–
CCC(=S)NC[C@H]1CN(c2ccc(N3CCN(C(C)=S)CC3)c(F)c2)C(=O)O1 [EX 4, N-({(5S)-3-[4-(4-ethanethiolyl-1-piperazinyl)-3-fluorophenyl]2-oxo-1,3-oxazolidin-5-yl}methyl)propanethioamide]	0.5 µg/mL (≈ 1.18 µM)	1 µg/mL (≈ 2.36 µM)	1 µg/mL (≈ 2.36 µM)	0.125 µg/mL (≈ 0.294 µM)	0.5 µg/mL (≈ 1.18 µM)	0.125 µg/mL (≈ 0.294 µM)	0.5 µg/mL (≈ 1.18 µM)	0.25 µg/mL (≈ 0.589 µM)	209 to 210 °C	–	–	–	–	–	–	–	–
CCC(=S)NC[C@H]1CN(c2ccc(N3CCN(C(=O)[C@@H](OC(C)=O)c4ccccc4)CC3)c(F)c2)C(=O)O1 [EX 22, N-[((5S)-3-{3-fluoro-4-[4-((2S)-2-acetoxy-2-phenylacetyl)-1-piperazinyl]phenyl}-2-oxo-1,3-oxazolidin-5-yl)methyl]propanethioamide]	4 µg/mL (≈ 7.37 µM)	8 µg/mL (≈ 14.7 µM)	> 64 µg/mL	2 µg/mL (≈ 3.69 µM)	8 µg/mL (≈ 14.7 µM)	4 µg/mL (≈ 7.37 µM)	4 µg/mL (≈ 7.37 µM)	4 µg/mL (≈ 7.37 µM)	–	–	–	–	–	–	–	–	–
CCC(=S)NC[C@H]1CN(c2ccc(N3CCN(C(=O)COC(=O)OCCOC)CC3)c(F)c2)C(=O)O1 [EX 7, N-({(5S)-3-(3-fuoro-4-{4-[2-[(2-methoxyethoxy)carbonyloxy]acetyl]-1-piperazinyl}phenyl)-2-oxo-1,3-oxazolidin-5-yl}methyl) propanethioamide]	2 µg/mL (≈ 3.8 µM)	4 µg/mL (≈ 7.6 µM)	4 µg/mL (≈ 7.6 µM)	0.25 µg/mL (≈ 0.475 µM)	2 µg/mL (≈ 3.8 µM)	0.25 µg/mL (≈ 0.475 µM)	2 µg/mL (≈ 3.8 µM)	1 µg/mL (≈ 1.9 µM)	150 to 151 °C	–	–	–	–	–	–	–	–
CCC(=S)NC[C@H]1CN(c2ccc(N3CCN(C(=O)COc4ccccc4)CC3)c(F)c2)C(=O)O1 [EX 15, N-[((5S)-3-{3-fluoro-4-[4-(2-phenoxyacetyl)-1-piperazinyl]phenyl}-2-oxo-1,3-oxazolidin-5-yl)methyl]propanethioamide]	0.5 µg/mL (≈ 0.999 µM)	2 µg/mL (≈ 4 µM)	32 µg/mL (≈ 63.9 µM)	0.25 µg/mL (≈ 0.499 µM)	2 µg/mL (≈ 4 µM)	0.5 µg/mL (≈ 0.999 µM)	1 µg/mL (≈ 2 µM)	0.5 µg/mL (≈ 0.999 µM)	171 to 172 °C	–	–	–	–	–	–	–	–
CCC(=S)NC[C@H]1CN(c2ccc(N3CCN(C(=O)[C@@H](O)Cc4ccccc4)CC3)c(F)c2)C(=O)O1 [EX 19, N-[((5S)-3-{3-fluoro-4-[4-((2S)-2-hydroxy-3-phenylpropanoyl)-1-piperazinyl]phenyl}-2-oxo-1,3-oxazolidin-5-yl)methyl]propanethioamide]	2 µg/mL (≈ 3.89 µM)	8 µg/mL (≈ 15.5 µM)	> 64 µg/mL	< 0.5 µg/mL	2 µg/mL (≈ 3.89 µM)	1 µg/mL (≈ 1.94 µM)	2 µg/mL (≈ 3.89 µM)	2 µg/mL (≈ 3.89 µM)	174 to 175 °C	–	–	–	–	–	–	–	–
CCC(=S)NC[C@H]1CN(c2ccc(N3CCN(C(=O)C(CO)OC)CC3)c(F)c2)C(=O)O1 (stereo partly drawn) [EX 10, N-[((5S)-3-{3-fluoro-4-[4-((2S)-3-hydroxy-2-methyoxypropanoyl)-1-piperazinyl]phenyl}-2-oxo-1,3-oxazolidin-5-yl)methyl]propanethioamide]	1 µg/mL (≈ 2.13 µM)	4 µg/mL (≈ 8.54 µM)	16 µg/mL (≈ 34.1 µM)	1 µg/mL (≈ 2.13 µM)	4 µg/mL (≈ 8.54 µM)	1 µg/mL (≈ 2.13 µM)	2 µg/mL (≈ 4.27 µM)	2 µg/mL (≈ 4.27 µM)	–	–	–	–	–	–	–	–	–
CCC(=S)NC[C@H]1CN(c2ccc(N3CCN(C(=O)CSC)CC3)c(F)c2)C(=O)O1 [EX 2, N-{[(5S)-3-(3-fluoro-4-{4-[2-(methylsulfanyl)acetyl]-1-piperazinyl}phenyl)-2-oxo-1,3-oxazolidin-5-yl]methyl}propanethioamide]	1 µg/mL (≈ 2.2 µM)	4 µg/mL (≈ 8.8 µM)	> 64 µg/mL	< 0.5 µg/mL	2 µg/mL (≈ 4.4 µM)	1 µg/mL (≈ 2.2 µM)	1 µg/mL (≈ 2.2 µM)	1 µg/mL (≈ 2.2 µM)	–	–	–	–	–	–	–	–	–
N{[(5S)-3-(3-fluoro-4-{4-[2-(methylsulfinyl)acetyl]-1-piperazinyl}phenyl)-2-oxo-1,3-oxazolidin-5-yl]methyl }propanethioamide [EX 1]	–	–	–	–	–	–	–	–	–	1 µg/mL	8 µg/mL	8 µg/mL	.05 µg/mL	4 µg/mL	2 µg/mL	2 µg/mL	1 µg/mL
CCC(=S)NC[C@H]1CN(c2ccc(N3CCN(C(=O)[C@H](O)c4ccccc4)CC3)c(F)c2)C(=O)O1 [EX 21, N-[((5S)-3-{3-fluoro-4-[4-((2R)-2-hydroxy-2-phenylacetyl)-1-piperazinyl]phenyl}-2-oxo-1,3-oxazolidin-5-yl)methyl]propanethioamide]	2 µg/mL (≈ 4 µM)	4 µg/mL (≈ 7.99 µM)	64 µg/mL (≈ 128 µM)	1 µg/mL (≈ 2 µM)	4 µg/mL (≈ 7.99 µM)	2 µg/mL (≈ 4 µM)	2 µg/mL (≈ 4 µM)	1 µg/mL (≈ 2 µM)	–	–	–	–	–	–	–	–	–
CCC(=S)NC[C@H]1CN(c2ccc(N3CCN(C(=O)[C@H](COC)OC)CC3)c(F)c2)C(=O)O1 [EX 9, N-[((5S)-3-{3-fluoro-4-[4-((2S)-2,3-dimethyoxypropanoyl)-1-piperazinyl]phenyl}-2-oxo-1,3-oxazolidin-5-yl)methyl]propanethioamide]	–	–	–	–	–	–	–	–	–	2 µg/mL	4 µg/mL	32 µg/mL	1 µg/mL	4 µg/mL	1 µg/mL	4 µg/mL	2 µg/mL

From patent US6642238B2, “Oxazolidinone thioamides with piperazine amide substituents” (Pharmacia and Upjohn Company, priority 2000, dated 2003)
